From patent US8815915B2, “Benzofuran-2-sulfonamides pyridine derivatives as chemokine receptor modulators” (Allergan, Inc., priority 2012, dated 2014)
Where two headings read alike, the source gives them in different places.

Target: T1, CCR2 receptor (Homo sapiens, UniProt P41597)
T1 construct: expressed in transfected cells
Experiment: compound-induced calcium activity on FLIPR Tetra in HEK-Gqi5 cells stably expressing CCR2
Type: cell-based
Experimental: HEK-Gqi5 cells stably expressing CCR2 were cultured in (DMEM high glucose, 10% FBS, 1% PSA, 400 μg/ml geneticin and 50 μg/ml hygromycin. Appropriate positive control chemokines (MCP-1, MIP1A or RANTES) was used as the positive control agonist for screening compound-induced calcium activity assayed on the FLIPR^Tetra. The drug plates were prepared in 384-well microplates using the EP3 and the MultiPROBE robotic liquid handling systems. Compounds were synthesized and tested for CCR2 activity.

[1] = CCR2 receptor, HEK-Gqi5 cells stably expressing CCR2, calcium FLIPR Tetra
[2] = CCR2 receptor, HEK-Gqi5 cells stably expressing CCR2, calcium FLIPR Tetra, read-out: IC50

T1 sequence (P41597 whole entry): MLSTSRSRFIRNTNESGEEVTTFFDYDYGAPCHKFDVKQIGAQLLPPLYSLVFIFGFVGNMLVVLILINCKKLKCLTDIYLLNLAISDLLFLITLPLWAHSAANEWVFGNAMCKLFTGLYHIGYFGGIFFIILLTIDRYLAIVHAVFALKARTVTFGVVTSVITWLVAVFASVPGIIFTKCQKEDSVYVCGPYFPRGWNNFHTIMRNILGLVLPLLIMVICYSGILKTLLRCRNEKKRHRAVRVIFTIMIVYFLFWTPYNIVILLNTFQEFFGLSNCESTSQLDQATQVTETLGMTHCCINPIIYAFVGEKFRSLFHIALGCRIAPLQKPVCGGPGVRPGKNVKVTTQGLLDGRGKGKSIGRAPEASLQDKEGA

| SMILES | % ANTAGONISM [1] [%] | IC50 [2] [nM] | IC50 [nM] |
| --- | --- | --- | --- |
| Cc1cnc(S(=O)(=O)c2ccccc2)c(NS(=O)(=O)c2cc3ccccc3o2)c1 [Compound 46, N-[5-methyl-2-(phenylsulfonyl)pyridin-3-yl]-1-benzofuran-2-sulfonamide] | 57 | 1440 | – |
| O=S(=O)(Nc1cc(Cl)cnc1[S+]([O-])Cc1ccccc1)c1cc2ccccc2o1 (centres unmarked) [Compound 2, N-[2-(benzylsulfinyl)-5-chloropyridin-3-yl]-1-benzofuran-2-sulfonamide] | 94 | 31 | – |
| Cc1cnc(SCc2ccccc2)c(NS(=O)(=O)c2cc3ccccc3o2)c1 [Compound 21, N-[2-(benzylsulfanyl)-5-methylpyridin-3-yl]-1-benzofuran-2-sulfonamide] | 80 | 194 | – |
| COC(=O)c1ccccc1C[S+]([O-])c1ncccc1NS(=O)(=O)c1cc2ccccc2o1 (centres unmarked) [Compound 58, methyl 2-[({3-[(1-benzofuran-2-ylsulfonyl)amino]pyridin-2-yl}sulfinyl)methyl]benzoate] | 102 | 198 | – |
| COC(=O)c1ccccc1CS(=O)(=O)c1ncc(Cl)cc1NS(=O)(=O)c1cc2ccccc2o1 [Compound 38, methyl 2-[({3-[(1-benzofuran-2-ylsulfonyl)amino]-5-chloropyridin-2-yl}sulfonyl)methyl]benzoate] | 97 | 180 | – |
| O=S(=O)(Nc1cc(Cl)cnc1[S+]([O-])c1ccccc1)c1cc2ccccc2o1 (centres unmarked) [Compound 32, N-[5-chloro-2-(phenylsulfinyl)pyridin-3-yl]-1-benzofuran-2-sulfonamide] | 99 | 7 | – |
| Cc1cnc([S+]([O-])c2ccccc2)c(NS(=O)(=O)c2cc3ccccc3o2)c1 (centres unmarked) [Compound 45, N-[5-methyl-2-(phenylsulfinyl)pyridin-3-yl]-1-benzofuran-2-sulfonamide] | 105 | 455 | – |
| Nc1cccc(CSc2ncccc2NS(=O)(=O)c2cc3ccccc3o2)c1 [Compound 11, N-{2-[(3-aminobenzyl)sulfanyl]pyridin-3-yl}-1-benzofuran-2-sulfonamide] | 99 | 102 | – |
| O=S(=O)(Nc1cc(F)cnc1SCc1ccccc1)c1cc2ccccc2o1 [Compound 15, N-[2-(benzylsulfanyl)-5-fluoropyridin-3-yl]-1-benzofuran-2-sulfonamide] | 94 | 125 | – |
| O=S(=O)(Cc1ccccc1)c1ncc(F)cc1NS(=O)(=O)c1cc2ccccc2o1 [Compound 17, N-[2-(benzylsulfonyl)-5-fluoropyridin-3-yl]-1-benzofuran-2-sulfonamide] | 101 | 43 | – |
| O=C(O)c1ccccc1CS(=O)(=O)c1ncc(Cl)cc1NS(=O)(=O)c1cc2ccccc2o1 [Compound 39, 2-[({3-[(1-benzofuran-2-ylsulfonyl)amino]-5-chloropyridin-2-yl}sulfonyl)methyl]benzoic acid] | 32 | 2690 | – |
| O=S(=O)(Nc1cc(F)cnc1[S+]([O-])Cc1ccccc1)c1cc2ccccc2o1 (centres unmarked) [Compound 16, N-[2-(benzylsulfinyl)-5-fluoropyridin-3-yl]-1-benzofuran-2-sulfonamide] | 95 | 18 | – |
| COC(=O)c1ccccc1CS(=O)(=O)c1ncccc1NS(=O)(=O)c1cc2ccccc2o1 [Compound 60, methyl 2-[({3-[(1-benzofuran-2-ylsulfonyl)amino]pyridin-2-yl}sulfonyl)methyl]benzoate] | 101 | 86 | – |
| COC(=O)c1ccccc1CSc1ncc(Cl)cc1NS(=O)(=O)c1cc2ccccc2o1 [Compound 35, methyl 2-[({3-[(1-benzofuran-2-ylsulfonyl)amino]-5-chloropyridin-2-yl}sulfanyl)methyl]benzoate] | 91 | 4250 | – |
| O=C(O)c1ccccc1C[S+]([O-])c1ncc(Cl)cc1NS(=O)(=O)c1cc2ccccc2o1 (centres unmarked) [Compound 43, 2-[({3-[(1-benzofuran-2-ylsulfonyl)amino]-5-chloropyridin-2-yl}sulfinyl)methyl]benzoic acid] | 90 | – | – |
| O=S(=O)(Nc1cc(Cl)cnc1S(=O)(=O)c1ccccc1)c1cc2ccccc2o1 [Compound 31, N-[5-chloro-2-(phenylsulfonyl)pyridin-3-yl]-1-benzofuran-2-sulfonamide] | 105 | 17 | – |

| SMILES | % ANTAGONISM [1] [%] | IC50 [2] [nM] | IC50 [nM] |
| --- | --- | --- | --- |
| O=C(O)c1ccccc1CS(=O)(=O)c1ncccc1NS(=O)(=O)c1cc2ccccc2o1 [Compound 61, 2-[({3-[(1-benzofuran-2-ylsulfonyl)amino]pyridin-2-yl}sulfonyl)methyl]benzoic acid] | 57 | – | – |
| O=S(=O)(Nc1cccnc1[S+]([O-])Cc1ccccc1)c1cc2ccccc2o1 (centres unmarked) [Compound 9, N-[2-(benzylsulfinyl)pyridin-3-yl]-1-benzofuran-2-sulfonamide] | 100 | 27 | – |
| COC(=O)c1ccccc1CSc1ncccc1NS(=O)(=O)c1cc2ccccc2o1 [Compound 56, methyl 2-[({3-[(1-benzofuran-2-ylsulfonyl)amino]pyridin-2-yl}sulfanyl)methyl]benzoate] | 92 | 1750 | – |
| O=C(O)c1ccccc1CSc1ncc(Cl)cc1NS(=O)(=O)c1cc2ccccc2o1 [Compound 36, 2-[({3-[(1-benzofuran-2-ylsulfonyl)amino]-5-chloropyridin-2-yl}sulfanyl)methyl]benzoic acid] | 97 | 340 | – |
| O=C(O)c1cccc(Sc2ncc(Cl)cc2NS(=O)(=O)c2cc3ccccc3o2)c1 [Compound 48, 3-({3-[(1-benzofuran-2-ylsulfonyl)amino]-5-chloropyridin-2-yl}sulfanyl)benzoic acid] | 96 | 786 | – |
| Nc1cccc(C[S+]([O-])c2ncc(Cl)cc2NS(=O)(=O)c2cc3ccccc3o2)c1 (centres unmarked) [Compound 19, N-{2-[(3-aminobenzyl)sulfinyl]-5-chloropyridin-3-yl}-1-benzofuran-2-sulfonamide] | 97 | 101 | – |
| O=S(=O)(Nc1cc(Cl)cnc1SCc1ccccc1)c1cc2ccccc2o1 [Compound 1, N-[2-(benzylthio)-5-chloropyridin-3-yl]-1-benzofuran-2-sulfonamide] | 83 | 252 | – |
| COC(=O)c1ccccc1Oc1ncc(Cl)cc1NS(=O)(=O)c1cc2ccccc2o1 [Compound 25, methyl 2-({3-[(1-benzofuran-2-ylsulfonyl)amino]-5-chloropyridin-2-yl}oxy)benzoate] | 93 | 215 | – |
| COC(=O)c1ccccc1C[S+]([O-])c1ncc(Cl)cc1NS(=O)(=O)c1cc2ccccc2o1 (centres unmarked) [Compound 37, methyl 2-[({3-[(1-benzofuran-2-ylsulfonyl)amino]-5-chloropyridin-2-yl}sulfinyl)methyl]benzoate] | 95 | 191 | – |
| O=C1CCN(C(=O)c2ncc(Cl)cc2NS(=O)(=O)c2cc3ccccc3o2)CC1 [Compound 28, N-{5-chloro-2-[(4-oxopiperidin-1-yl)carbonyl]pyridin-3-yl}-1-benzofuran-2-sulfonamide] | 105 | – | 24 |
| Cc1ncccc1COc1ncc(Cl)cc1NS(=O)(=O)c1cc2ccccc2o1 [Compound 33, N-{5-chloro-2-[(2-methylpyridin-3-yl)methoxy]pyridin-3-yl}-1-benzofuran-2-sulfonamide] | 102 | 251 | – |
| O=S(=O)(Nc1cccnc1SCc1ccccc1)c1cc2ccccc2o1 [Compound 8, N-[2-(benzylthio)pyridin-3-yl]-1-benzofuran-2-sulfonamide] | 80 | 3010 | – |
| O=S(=O)(Nc1cc(Cl)cnc1[S+]([O-])Cc1cccnc1)c1cc2ccccc2o1 (centres unmarked) [Compound 5, N-{5-chloro-2-[(pyridin-3-ylmethyl)sulfinyl]pyridin-3-yl}-1-benzofuran-2-sulfonamide] | 99 | 201 | – |
| O=S(=O)(Cc1cccnc1)c1ncc(Cl)cc1NS(=O)(=O)c1cc2ccccc2o1 [Compound 6, N-{5-chloro-2-[(pyridin-3-ylmethyl)sulfonyl]pyridin-3-yl}-1-benzofuran-2-sulfonamide] | 84 | 2140 | – |
| CC(C)(C)OC(=O)Nc1cccc(CS(=O)(=O)c2ncccc2NS(=O)(=O)c2cc3ccccc3o2)c1 [Compound 13, tert-butyl {3-[({3-[(1-benzofuran-2-ylsulfonyl)amino]pyridin-2-yl}sulfonyl)methyl]phenyl}carbamate] | 102 | 497 | – |
| O=S(=O)(Nc1cc(Cl)cnc1SCc1cccnc1)c1cc2ccccc2o1 [Compound 4, N-{5-chloro-2-[(pyridin-3-ylmethyl)thio]pyridin-3-yl}-1-benzofuran-2-sulfonamide] | 95 | 32 | – |
